How the values were obtained:
Assay in all cases: in vitro kinase activity assay
Assay type in all cases: biochemical
BMPR1A = BMPR1A (Homo sapiens, UniProt P36894)
BMPR2 = biological target: T1, BMPR2 (Homo sapiens, UniProt Q13873)
T1 sequence (Q13873 27-1038): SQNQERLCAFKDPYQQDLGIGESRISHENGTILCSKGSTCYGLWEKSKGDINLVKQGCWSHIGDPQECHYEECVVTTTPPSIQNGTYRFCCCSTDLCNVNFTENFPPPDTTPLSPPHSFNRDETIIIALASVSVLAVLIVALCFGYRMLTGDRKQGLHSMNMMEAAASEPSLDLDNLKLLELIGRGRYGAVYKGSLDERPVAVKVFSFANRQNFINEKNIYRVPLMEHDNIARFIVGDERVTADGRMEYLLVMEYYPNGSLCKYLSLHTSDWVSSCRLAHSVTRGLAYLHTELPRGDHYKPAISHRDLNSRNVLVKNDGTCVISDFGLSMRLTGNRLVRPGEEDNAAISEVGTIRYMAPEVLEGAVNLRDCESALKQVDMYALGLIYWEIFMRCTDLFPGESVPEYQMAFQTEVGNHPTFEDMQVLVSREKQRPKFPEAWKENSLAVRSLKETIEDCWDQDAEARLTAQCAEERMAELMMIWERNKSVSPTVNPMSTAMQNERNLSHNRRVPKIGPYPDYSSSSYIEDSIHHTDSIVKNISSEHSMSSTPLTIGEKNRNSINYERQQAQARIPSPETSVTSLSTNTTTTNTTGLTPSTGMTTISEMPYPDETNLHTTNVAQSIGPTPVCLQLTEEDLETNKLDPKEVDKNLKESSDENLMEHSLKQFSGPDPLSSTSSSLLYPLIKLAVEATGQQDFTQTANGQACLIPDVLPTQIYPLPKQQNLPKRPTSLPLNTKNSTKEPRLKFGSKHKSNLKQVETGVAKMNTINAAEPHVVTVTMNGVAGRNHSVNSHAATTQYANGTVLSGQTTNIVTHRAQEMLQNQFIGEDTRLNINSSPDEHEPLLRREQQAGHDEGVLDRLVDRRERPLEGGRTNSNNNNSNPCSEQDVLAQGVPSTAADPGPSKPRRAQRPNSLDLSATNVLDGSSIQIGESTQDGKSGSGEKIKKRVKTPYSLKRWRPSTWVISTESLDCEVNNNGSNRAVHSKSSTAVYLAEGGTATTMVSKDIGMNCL

TGFBR1 = biological target: T2, TGFBR1 (Homo sapiens, UniProt P36897)
T2 sequence (P36897 34-503): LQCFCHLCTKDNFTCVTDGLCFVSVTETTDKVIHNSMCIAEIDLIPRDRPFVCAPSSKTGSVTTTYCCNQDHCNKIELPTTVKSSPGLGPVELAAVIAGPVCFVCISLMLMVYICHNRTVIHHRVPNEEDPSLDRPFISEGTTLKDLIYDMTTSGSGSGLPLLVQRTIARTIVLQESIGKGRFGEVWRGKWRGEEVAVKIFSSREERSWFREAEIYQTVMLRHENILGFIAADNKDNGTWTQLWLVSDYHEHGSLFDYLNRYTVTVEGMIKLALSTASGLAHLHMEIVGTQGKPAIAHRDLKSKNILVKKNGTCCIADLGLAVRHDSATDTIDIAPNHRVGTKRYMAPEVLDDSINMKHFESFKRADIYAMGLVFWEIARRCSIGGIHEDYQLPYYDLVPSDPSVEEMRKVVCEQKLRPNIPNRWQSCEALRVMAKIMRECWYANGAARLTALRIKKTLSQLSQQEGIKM

BMPR1B = BMPR1B (Homo sapiens, UniProt O00238)
BMPR1B, sequence (O00238 14-502): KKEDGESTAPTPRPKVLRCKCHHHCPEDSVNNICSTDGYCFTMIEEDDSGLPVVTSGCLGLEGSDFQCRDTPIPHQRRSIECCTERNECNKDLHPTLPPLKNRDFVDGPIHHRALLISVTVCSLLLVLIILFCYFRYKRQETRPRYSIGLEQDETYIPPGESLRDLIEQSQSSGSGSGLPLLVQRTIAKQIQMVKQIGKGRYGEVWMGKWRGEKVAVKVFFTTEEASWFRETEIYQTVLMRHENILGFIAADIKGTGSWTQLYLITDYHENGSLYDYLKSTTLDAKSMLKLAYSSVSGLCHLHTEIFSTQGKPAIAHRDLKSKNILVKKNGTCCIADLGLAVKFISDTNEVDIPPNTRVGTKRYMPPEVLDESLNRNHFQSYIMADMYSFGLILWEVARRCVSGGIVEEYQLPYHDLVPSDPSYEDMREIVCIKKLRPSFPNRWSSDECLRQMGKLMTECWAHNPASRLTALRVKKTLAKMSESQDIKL

BMPR1A, sequence (P36894 24-532): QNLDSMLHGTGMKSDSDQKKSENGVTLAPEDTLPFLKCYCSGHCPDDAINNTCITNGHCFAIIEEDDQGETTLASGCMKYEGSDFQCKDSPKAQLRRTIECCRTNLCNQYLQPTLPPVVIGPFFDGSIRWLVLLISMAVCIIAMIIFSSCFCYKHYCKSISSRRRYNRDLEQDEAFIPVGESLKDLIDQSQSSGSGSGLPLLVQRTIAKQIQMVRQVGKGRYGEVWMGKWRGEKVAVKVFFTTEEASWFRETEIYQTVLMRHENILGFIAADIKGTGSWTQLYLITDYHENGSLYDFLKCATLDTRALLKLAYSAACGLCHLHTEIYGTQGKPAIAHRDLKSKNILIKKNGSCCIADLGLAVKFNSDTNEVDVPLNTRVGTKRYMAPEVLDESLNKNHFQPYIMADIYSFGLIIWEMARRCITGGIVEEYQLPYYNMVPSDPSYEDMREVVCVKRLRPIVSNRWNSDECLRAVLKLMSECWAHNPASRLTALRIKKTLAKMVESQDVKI

IC50 (BMPR1A): 0.806 µM | IC50 (BMPR2): 0.201 µM | IC50 (TGFBR1): 1.04 µM | IC50 (BMPR1B): 1.1 µM
Structure (SMILES): O=C1Nc2ccc(O)cc2/C1=C\c1ccc(O)c(O)c1 [ZL170, (E)-3-(3,4-dihydroxybenzylidene)-5-hydroxyindolin-2-one]
